One data set has as its system P. falciparum TM6. In words: In vitro blood stage antimalarial efficacy, [3H]hypoxanthine uptake, strain TM6. Format: cell-based. The note with it: Plasmodium falciparum; read-out: IC50. The procedure: (§1) In Vitro Blood Stage Antimalarial Efficacy Evaluation. New compounds were tested against a panel of strains of P. falciparum.
(§2) Test compounds were initially dissolved in DMSO and diluted 400 fold in RPMI 1640 culture medium supplemented with 25 mM Hepes, 32 mM NaHCO3 and 10% Albumax I (Gibco, NY). These solutions were subsequently serially diluted two-fold with a Beckman Biomek® 1000 Robot (Fullerton, Calif.) over 11 different concentrations. The parasites were exposed to serial dilutions of each compound for 48 hrs and incubated at 37° C. with 5% O2, 5% CO2 and 90% N2 prior to the addition of [^3H]hypoxanthine. After a further incubation of 18 hrs, parasite DNA was harvested from each microtiter well using Packard Filtermate™ 196 Harvester (Meriden, Conn.) onto glass filters. Uptake of [^3H]hypoxanthine was measured with a Packard TopCount Liquid Scintillation Counter (Packard Instrument Co.).

Another data set deals with P. falciparum TM4. The experiment in a line: In vitro blood stage antimalarial efficacy, [3H]hypoxanthine uptake, strain TM4. In kind it is cell-based. The note with it: Plasmodium falciparum; read-out: IC50. The procedure: as §1, §2
The subject of another data set is rodent P. berghei. The note with it: for Primary therapeutic index / Secondary therapeutic index: Sprague-Dawley, rat, in vivo, po; for MCureD (minimum curative dose): rodent P. berghei, administered orally. The procedure:
Antimalarial potency was measured by determination of the MCD (minimum clearance dose), a commonly used efficacy measurement. The primary therapeutic indices, which were obtained by using the MCDs as the effective parameters, were calculated. A secondary therapeutic indices measure of antimalarial potency was determined by use of the dose for the MCureD (minimum curative dose).

Data set [1] concerns chloroquine-resistant FVO strain of P. falciparum. The experiment in a line: Efficacy against blood stages of P. falciparum in Aotus monkeys. In kind it is in vivo. The note with it: oral for 3 days. The procedure:
In Vivo Efficacy Studies in Aotus Monkey Model. The monkeys selected for the study had active infections of the chloroquine-resistant FVO strain of P. falciparum. Once parasitemias reached 5,000/μl (or as deemed appropriate by the attending veterinarian), they were treated orally with Formula B or Formula C at 2, 4, 8, or 16 mg/kg/day for 3 days. For compound Formula B, the dosage needed to cure 50% of animals was 4 mg/kg/day and the dosage needed to cure 100% of animals was 16 mg/kg/day. For compound Formula C, the 50% curative dose was 2 mg/kg/day and the 100% curative dose was 8 mg/kg/day (Table 7).
Malaria-naive Panamanian owl monkeys (Aotus lemurinus lemurinus) were used as hosts for chioroquine-resistant P. falciparum. The chloroquine-resistant Vietnam Smith strain was used in the initial experiments. In subsequent studies, a recrudescent isolate from a Vietnam Smith strain infected Aotus monkey treated with chloroquine was used.
The inoculum size produced a parasitemia of at least 5×10^3/mm^3 by the fifth day postinoculation, at which time treatment was begun. Stock solutions of water-soluble drug were prepared at appropriate concentrations and maintained at 4° C. during the course of treatment. A suspension of water-insoluble drugs was prepared in 0.3% methylcellulose just prior to use. All drugs were administered by gastric intubation in a volume of 7.0 ml, followed by a 7.0-mi rinse with either water or 0.3% methylcellulose. Test drug was given orally for either three or seven consecutive days. In several experiments, the putative resistance modulator was given three times per day (8:00 AM, noon, and 4:00 PM) for three or seven days.
Giemsa-stained blood smears were prepared from all animals and examined daily beginning the day after inoculation until parasitemia was cleared and for at least seven days thereafter. At that time, blood films were examined twice a week up to 100 days after treatment. Thick blood films were considered negative if no parasites were seen after examination for at least five min. Ten or less parasites on a thick blood film were recorded as <10. Parasitemia was enumerated and expressed as number of parasites/mm^3. Treated animals were observed twice a day for signs of drug toxicity, as evidenced by abnormal behavior, anorexia, diarrhea, or vomiting. Necropsies were per formed on all animals that died. In conducting the research described in this report, the investigators adhered to the Guide for the Care and Use of Laboratory Animals, as promulgated by the National Research Council.
The outcome of each infection was compared with untreated controls and monkeys treated with chloroquine. […]

For another data set, the system named is P. falciparum 3D7. The experiment in a line: In vitro blood stage antimalarial efficacy, [3H]hypoxanthine uptake, strain 3D7. In kind it is cell-based. The note with it: Plasmodium falciparum, read-out: IC50. As for the experimental part:
as §1, §2

Regarding `COC[C@@H]([C@@H](O)[C@@H](O)[C@H](N)Cc1ccccc1)[C@@H]1CC[C@@]23CC24c2nc5ccc(OC)cc5cc2C(=O)N[C@H]4CN13` (stereo partly shown) [Formula C], the IC50 with P. falciparum TM6 was determined as 0.09 ± 0.02 nM. Moreover, in the data set with P. falciparum TM4, the IC50 is 0.31 ± 0.07 nM. In the data set with rodent P. berghei, the Primary therapeutic index is listed as 290, the Secondary therapeutic index came to 72 and the “MCureD (minimum curative dose)” value turned out to be 9.82 mg/kg. Besides, in data set [1], the “Dosage needed to cure 50% of animals (50% curative dose)” value was 2 mg/kg/day and the “Dosage needed to cure 100% of animals (100% curative dose)” value is 8 mg/kg/day. The IC50 with P. falciparum 3D7 worked out at 0.22 ± 0.05 nM.
`CC[C@@H](N)[C@H](O)[C@H](O)[C@H](COC)[C@@H]1CC[C@@]23CC24c2nc5ccc(OC)cc5cc2C(=O)N[C@H]4CN13` (stereo partly shown) [Formula B]: the IC50 in the data set with P. falciparum TM6 is 0.18 ± 0.03 nM. Moreover, the IC50 with P. falciparum TM4 was found to be 0.23 ± 0.04 nM. In addition, in the data set with rodent P. berghei, the Primary therapeutic index is on record as 237, the Secondary therapeutic index turned out to be 53 and the “MCureD (minimum curative dose)” value amounted to 14.2 mg/kg. In data set [1], the “Dosage needed to cure 50% of animals (50% curative dose)” value was determined as 4 mg/kg/day and the “Dosage needed to cure 100% of animals (100% curative dose)” value is recorded as 16 mg/kg/day. In the data set with P. falciparum 3D7, the IC50 stood at 0.19 ± 0.04 nM.

The values are drawn from patent US8653095B2, “Small molecules with antimalarial activity” (Radix Pharmaceuticals, Inc., priority 2011, dated 2014).
